According to patent US11497752B2, “Compounds and uses thereof” (Foghorn Therapeutics Inc., priority 2018, dated 2022):

What was measured:
[1] = tested on: Uveal melanoma cell lines, 92-1 or MP41; assay: Comparison with clinical PKC and MEK inhibitors in uveal melanoma cell lines (Cell-titer glo, 3 days); format: cell-based; settings: FIG. 2, vs LXS196 and Selumetinib
[2] = tested on: uveal melanoma and hematologic cancer cell lines; settings: FIG. 1; 0 to 10 micromolar; uveal melanoma and hematologic cancer cell lines vs other tested cell lines

## CSCC[C@H](NC(=O)c1ccc(N)cc1)C(=O)Nc1nc(-c2cccc(-c3ccncc3)c2)cs1 [Compound 87, (S)-4-amino-N-(4-(methylthio)-1-oxo-1-((4-(3-(pyridin-4-yl)phenyl)thiazol-2-yl)amino)butan-2-yl)benzamide]
[1]; 0 to 10 micromolar, 3 days
  growth inhibition of uveal melanoma cells: comparable growth inhibition of uveal melanoma cells as the clinical PKC and MEK inhibitors
[1]
  onset of inhibition: faster onset of inhibition than the clinical PKC and MEK inhibitors
[2]
  sensitivity of cell lines to growth inhibition (GI50): more sensitive to BRG1/BRM inhibition than the other tested cell lines
